Where two headings read alike, the source gives them in different places.
Columns and labels:
[1] = XTR5 vs Texanol paint in Raycryl 1526 acrylic emulsion polymer; details: Raycryl 1526 paint
Description: (§1) Bis(1-butoxypropan-2-yl) carbonate (TreviSol, XTR5) was used as a direct replacement for other typical coalescents, such as, Texanol™, as follows.

[2] = XTR5 vs Texanol coating in Raycryl 1001 acrylic emulsion polymer; details: Raycryl 1001 coating
Description: as §1

[3] = XTR5 vs Texanol coating in EPS 2708 acrylic emulsion polymer; details: EPS 2708 coating
Description: as §1

[4] = Physical/chemical properties of XTR5

Structure (SMILES)	Specific Gravity [1]	VOC (Without Water) [1]	Viscosity [1]	Volume Solid % [1]	Weight Solid % [1]	Specific Gravity [2]	VOC (Without Water) [2]	Viscosity [2]	Volume Solid % [2]	Weight Solid % [2]	Specific Gravity [3]	VOC (Without Water) [3]	Viscosity [3]	Volume Solid % [3]	Weight Solid % [3]	other results
CC(C)C(=O)OCC(C)(C)C(O)C(C)C (centres unmarked) [Texanol, 2-methyl-, 3-hydroxy-2,2,4-trimethylpentyl ester, reference compound]	1.25 g/cm3	95.0 g/L	90 KU	40.91%	51.91%	1.32 g/cm3	54.6 g/L	95 KU	41.1%	54.6%	1.33 g/cm3	103.3 g/L	95 KU	41.0%	54.5%	–
CCCCOCC(C)OC(=O)OC(C)COCCCC (centres unmarked) [XTR5, bis(1-butoxypropan-2-yl) carbonate]	1.25 g/cm3	45.0 g/L	90 KU	40.91%	51.91%	1.32 g/cm3	1.5 g/L	95 KU	41.1%	54.6%	1.33 g/cm3	59.6 g/L	95 KU	41.0%	54.5%	Clarity [4]: Clear; Colour (Alpha, max) [4]: 10; Density [4]: (7.94 lb/gal); Evaporation Rate [4]: Slow and Close to Texanol; Partial Coefficient (Range) [4]: 0.7-2.0; Texanol Solubility [4]: Soluble; VOC [4]: 0 g/L; Volatility (%) [4]: 100%; Water Solubility [4]: Not Soluble; Specific Gravity ([4]; @15.5°): 0.956; Density ([4]; @ 20° C.): 0.951 g/mL; Solubility in H2O ([4]; @ 25° C.): Insoluble; Vapour Pressure ([4]; @ 25° C.): 0.005 mm Hg; Viscosity ([4]; @ 25° C.): 0.58 cP; Vapour Density (mm Hg Air = 1) ([4]; Air = 1): 0.95; TGA Weight Loss ([4]; Ambient 115-240° C.): 97.94%; Evaporation Rate (n-Butyl Acetate = 1) ([4]; n-Butyl Acetate = 1): 0.0004

From patent US11708500B2, “Solvent compounds for use as coalescents” (TBF ENVIRONMENTAL TECHNOLOGY INC., priority 2017, dated 2023)
